These compounds were tested against GST-Bc1-2 (Homo sapiens, UniProt P10415) (assay: Time Resolved-Fluorescence Resonance Energy Transfer (TR-FRET) Bcl-2 binding assay with F-Bak peptide probe). Conditions: GST-Bcl-2 1 nM, F-Bak probe 100 nM, Tb-anti-GST 1 nM; '<' = below limit of detection; read-out: TR-FRET Bcl-2 Binding Ki.
GST-Bc1-2, sequence (P10415 whole entry): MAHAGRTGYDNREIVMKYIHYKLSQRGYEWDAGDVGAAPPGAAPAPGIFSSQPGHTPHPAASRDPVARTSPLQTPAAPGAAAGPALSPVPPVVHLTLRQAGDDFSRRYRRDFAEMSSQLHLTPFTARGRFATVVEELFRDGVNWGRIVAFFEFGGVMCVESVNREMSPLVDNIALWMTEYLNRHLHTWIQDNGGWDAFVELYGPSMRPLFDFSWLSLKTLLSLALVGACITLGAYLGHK

| Compound | Ki |
| --- | --- |
| CN1CCC(COc2ncc(S(=O)(=O)NC(=O)c3ccc(N4CCN(CC5=C(c6ccc(Cl)cc6)CC(C)(C)CC5)CC4)cc3Oc3cnc4[nH]ccc4c3)cc2Br)CC1 [Example 47, N-({5-bromo-6-[(1-methylpiperidin-4-yl)methoxy]pyridin-3-yl}sulfonyl)-4-(4-{[2-(4-chlorophenyl)-4,4-dimethylcyclohex-1-en-1-yl]methyl}piperazin-1-yl)-2-(1H-pyrrolo[2,3-b]pyridin-5-yloxy)benzamide] | < 0.01 nM |
| CN1CCC(COc2ccc(S(=O)(=O)NC(=O)c3ccc(N4CCN(CC5=C(c6ccc(Cl)cc6)CC(C)(C)CC5)CC4)cc3Oc3cnc4[nH]ccc4c3)cc2[N+](=O)[O-])CC1 [Example 48, 4-(4-{[2-(4-chlorophenyl)-4,4-dimethylcyclohex-1-en-1-yl]methyl}piperazin-1-yl)-N-({4-[(1-methylpiperidin-4-yl)methoxy]-3-nitrophenyl}sulfonyl)-2-(1H-pyrrolo[2,3-b]pyridin-5-yloxy)benzamide] | < 0.01 nM |
| CC1(C)CCC(CN2CCN(c3ccc(C(=O)NS(=O)(=O)c4cnc(OCC5COCCO5)c(C#N)c4)c(Oc4cnc5[nH]ccc5c4)c3)CC2)=C(c2ccc(Cl)cc2)C1 (stereo not shown) [Example 49, 4-(4-{[2-(4-chlorophenyl)-4,4-dimethylcyclohex-1-en-1-yl]methyl}piperazin-1-yl)-N-{[5-cyano-6-(1,4-dioxan-2-ylmethoxy)pyridin-3-yl]sulfonyl}-2-(1H-pyrrolo[2,3-b]pyridin-5-yloxy)benzamide] | 0.074 nM |
| CC1(C)CCC(CN2CCN(c3ccc(C(=O)NS(=O)(=O)c4cnc(OCC5COCCO5)c(Br)c4)c(Oc4cnc5[nH]ccc5c4)c3)CC2)=C(c2ccc(Cl)cc2)C1 (stereo not shown) [Example 50, N-{[5-bromo-6-(1,4-dioxan-2-ylmethoxy)pyridin-3-yl]sulfonyl}-4-(4-{[2-(4-chlorophenyl)-4,4-dimethylcyclohex-1-en-1-yl]methyl}piperazin-1-yl)-2-(1H-pyrrolo[2,3-b]pyridin-5-yloxy)benzamide] | 0.021 nM |
| CC1(C)CCC(CN2CCN(c3ccc(C(=O)NS(=O)(=O)c4ccc(OCC5CCOC(C)(C)C5)c([N+](=O)[O-])c4)c(Oc4cnc5[nH]ccc5c4)c3)CC2)=C(c2ccc(Cl)cc2)C1 (stereo not shown) [Example 51, 4-(4-{[2-(4-chlorophenyl)-4,4-dimethylcyclohex-1-en-1-yl]methyl}piperazin-1-yl)-N-({4-[(2,2-dimethyltetrahydro-2H-pyran-4-yl)methoxy]-3-nitrophenyl}sulfonyl)-2-(1H-pyrrolo[2,3-b]pyridin-5-yloxy)benzamide] | < 0.01 nM |
| CC1(C)CCC(CN2CCN(c3ccc(C(=O)NS(=O)(=O)c4cc(Cl)c(NCC5CCOCC5)c(C#N)c4)c(Oc4cnc5[nH]ccc5c4)c3)CC2)=C(c2ccc(Cl)cc2)C1 [Example 52, N-({3-chloro-5-cyano-4-[(tetrahydro-2H-pyran-4-ylmethyl)amino]phenyl}sulfonyl)-4-(4-{[2-(4-chlorophenyl)-4,4-dimethylcyclohex-1-en-1-yl]methyl}piperazin-1-yl)-2-(1H-pyrrolo[2,3-b]pyridin-5-yloxy)benzamide] | 0.114 nM |
| CC(=O)N1CCC(Nc2ccc(S(=O)(=O)NC(=O)c3ccc(N4CCN(CC5=C(c6ccc(Cl)cc6)CC(C)(C)CC5)CC4)cc3Oc3cnc4[nH]ccc4c3)cc2[N+](=O)[O-])CC1 [Example 53, N-({4-[(1-acetylpiperidin-4-yl)amino]-3-nitrophenyl}sulfonyl)-4-(4-{[2-(4-chlorophenyl)-4,4-dimethylcyclohex-1-en-1-yl]methyl}piperazin-1-yl)-2-(1H-pyrrolo[2,3-b]pyridin-5-yloxy)benzamide] | < 0.01 nM |
| CC1(C)CCC(CN2CCN(c3ccc(C(=O)NS(=O)(=O)c4cc(F)c(NCC5CCOCC5)cc4Cl)c(Oc4cnc5[nH]ccc5c4)c3)CC2)=C(c2ccc(Cl)cc2)C1 [Example 54, N-({2-chloro-5-fluoro-4-[(tetrahydro-2H-pyran-4-ylmethyl)amino]phenyl}sulfonyl)-4-(4-{[2-(4-chlorophenyl)-4,4-dimethylcyclohex-1-en-1-yl]methyl}piperazin-1-yl)-2-(1H-pyrrolo[2,3-b]pyridin-5-yloxy)benzamide] | 2.07 nM |
| CC1(C)CCC(CN2CCN(c3ccc(C(=O)NS(=O)(=O)c4ccc(NCCCN5CCOCC5)c([N+](=O)[O-])c4)c(Oc4cnc5[nH]ccc5c4)c3)CC2)=C(c2ccc(Cl)cc2)C1 [Example 55, 4-(4-{[2-(4-chlorophenyl)-4,4-dimethylcyclohex-1-en-1-yl]methyl}piperazin-1-yl)-N-({4-[(3-morpholin-4-ylpropyl)amino]-3-nitrophenyl}sulfonyl)-2-(1H-pyrrolo[2,3-b]pyridin-5-yloxy)benzamide] | < 0.01 nM |
| CC1(C)CCC(CN2CCN(c3ccc(C(=O)NS(=O)(=O)c4cnc(OCC5(F)CCOCC5)c(C#N)c4)c(Oc4cnc5[nH]ccc5c4)c3)CC2)=C(c2ccc(Cl)cc2)C1 [Example 56, 4-(4-{[2-(4-chlorophenyl)-4,4-dimethylcyclohex-1-en-1-yl]methyl}piperazin-1-yl)-N-({5-cyano-6-[(4-fluorotetrahydro-2H-pyran-4-yl)methoxy]pyridin-3-yl}sulfonyl)-2-(1H-pyrrolo[2,3-b]pyridin-5-yloxy)benzamide] | 0.037 nM |
| CC1(C)CCC(CN2CCN(c3ccc(C(=O)NS(=O)(=O)c4cnc(OCCN5CCOCC5)c(C#N)c4)c(Oc4cnc5[nH]ccc5c4)c3)CC2)=C(c2ccc(Cl)cc2)C1 [Example 57, 4-(4-{[2-(4-chlorophenyl)-4,4-dimethylcyclohex-1-en-1-yl]methyl}piperazin-1-yl)-N-{[5-cyano-6-(2-morpholin-4-ylethoxy)pyridin-3-yl]sulfonyl}-2-(1H-pyrrolo[2,3-b]pyridin-5-yloxy)benzamide] | 0.063 nM |
| COCCOCCS(=O)(=O)c1ccc(S(=O)(=O)NC(=O)c2ccc(N3CCN(CC4=C(c5ccc(Cl)cc5)CC(C)(C)CC4)CC3)cc2Oc2cnc3[nH]ccc3c2)cc1Cl [Example 58, N-[(3-chloro-4-{[2-(2-methoxyethoxy)ethyl]sulfonyl}phenyl)sulfonyl]-4-(4-{[2-(4-chlorophenyl)-4,4-dimethylcyclohex-1-en-1-yl]methyl}piperazin-1-yl)-2-(1H-pyrrolo[2,3-b]pyridin-5-yloxy)benzamide] | < 0.01 nM |
| COCCOCCS(=O)(=O)c1ccc(S(=O)(=O)NC(=O)c2ccc(N3CCN(CC4=C(c5ccc(Cl)cc5)CC(C)(C)CC4)CC3)cc2Oc2cnc3[nH]ccc3c2)cc1[N+](=O)[O-] [Example 59, 4-(4-{[2-(4-chlorophenyl)-4,4-dimethylcyclohex-1-en-1-yl]methyl}piperazin-1-yl)-N-[(4-{[2-(2-methoxyethoxy)ethyl]sulfonyl}-3-nitrophenyl)sulfonyl]-2-(1H-pyrrolo[2,3-b]pyridin-5-yloxy)benzamide] | 0.203 nM |
| CC1(C)CCC(CN2CCN(c3ccc(C(=O)NS(=O)(=O)c4ccc(O[C@H]5CC[C@H](N6CCOCC6)CC5)c([N+](=O)[O-])c4)c(Oc4cnc5[nH]ccc5c4)c3)CC2)=C(c2ccc(Cl)cc2)C1 [Example 60, Trans-4-(4-{[2-(4-chlorophenyl)-4,4-dimethylcyclohex-1-en-1-yl]methyl}piperazin-1-yl)-N-({4-[(4-morpholin-4-ylcyclohexyl)oxy]-3-nitrophenyl}sulfonyl)-2-(1H-pyrrolo[2,3-b]pyridin-5-yloxy)benzamide] | < 0.01 nM |
| CC1(C)CCC(CN2CCN(c3ccc(C(=O)NS(=O)(=O)c4ccc(NCCC#N)c([N+](=O)[O-])c4)c(Oc4cnc5[nH]ccc5c4)c3)CC2)=C(c2ccc(Cl)cc2)C1 [Example 62, 4-(4-{[2-(4-chlorophenyl)-4,4-dimethylcyclohex-1-en-1-yl]methyl}piperazin-1-yl)-N-({4-[(2-cyanoethyl)amino]-3-nitrophenyl}sulfonyl)-2-(1H-pyrrolo[2,3-b]pyridin-5-yloxy)benzamide] | < 0.01 nM |
| CC1(C)CC(c2ccc(Cl)cc2)=C(CN2CCN(c3ccc(C(=O)NS(=O)(=O)c4ccc(N[C@H]5CC[C@@H](N6CCOCC6)CC5)c([N+](=O)[O-])c4)c(Oc4cnc5[nH]ccc5c4)c3)CC2)CO1 [Example 63, Cis-4-(4-{[4-(4-chlorophenyl)-6,6-dimethyl-5,6-dihydro-2H-pyran-3-yl]methyl}piperazin-1-yl)-N-({4-[(4-morpholin-4-ylcyclohexyl)amino]-3-nitrophenyl}sulfonyl)-2-(1H-pyrrolo[2,3-b]pyridin-5-yloxy)benzamide] | < 0.01 nM |
| CC1(C)CCC(CN2CCN(c3ccc(C(=O)NS(=O)(=O)c4ccc(N[C@H]5CC[C@H](N(CC6CC6)CC6CC6)CC5)c([N+](=O)[O-])c4)c(Oc4cnc5[nH]ccc5c4)c3)CC2)=C(c2ccc(Cl)cc2)C1 [Example 64, Trans-N-{[4-({4-[bis(cyclopropylmethyl)amino]cyclohexyl}amino)-3-nitrophenyl]sulfonyl}-4-(4-{[2-(4-chlorophenyl)-4,4-dimethylcyclohex-1-en-1-yl]methyl}piperazin-1-yl)-2-(1H-pyrrolo[2,3-b]pyridin-5-yloxy)benzamide] | < 0.01 nM |
| CN1CCC(CNc2ccc(S(=O)(=O)NC(=O)c3ccc(N4CCN(CC5=C(c6ccc(Cl)cc6)CC(C)(C)CC5)CC4)cc3Oc3cnc4[nH]ccc4c3)cc2[N+](=O)[O-])CC1 [Example 65, 4-(4-{[2-(4-chlorophenyl)-4,4-dimethylcyclohex-1-en-1-yl]methyl}piperazin-1-yl)-N-[(4-{[(1-methylpiperidin-4-yl)methyl]amino}-3-nitrophenyl)sulfonyl]-2-(1H-pyrrolo[2,3-b]pyridin-5-yloxy)benzamide] | < 0.01 nM |
| CC1(C)CCC(CN2CCN(c3ccc(C(=O)NS(=O)(=O)c4ccc(NCC5COCCN5)c([N+](=O)[O-])c4)c(Oc4cnc5[nH]ccc5c4)c3)CC2)=C(c2ccc(Cl)cc2)C1 (stereo not shown) [Example 66, 4-(4-{[2-(4-chlorophenyl)-4,4-dimethylcyclohex-1-en-1-yl]methyl}piperazin-1-yl)-N-({4-[(morpholin-3-ylmethyl)amino]-3-nitrophenyl}sulfonyl)-2-(1H-pyrrolo[2,3-b]pyridin-5-yloxy)benzamide] | < 0.01 nM |

Reference: patent US8580794B2 (AbbVie Inc., priority 2009, dated 2013)
